In patent US20130012443A1, “METHODS OF TREATMENT OF CENTRAL NERVOUS SYSTEM HEMORRHAGE USING PROTOPORPHYRIN IX-FE COMPOUNDS” (priority 2011, published 2013):
Entries after “also recorded” stand apart in the source; their conditions may differ.

Legend:
heme oxygenase-1 (HO-1) = experiment: HO-1 expression in mouse brain by immunoblotting; type: in vivo; conditions: 26 mg/kg i.p. for 1 or 2 days, v. saline; for HO-1 expression in cortex (CTX) / HO-1 expression in striatum (STR): 24 hours after last dose, FIG. 4
Procedure: Mice received 26 mg/kg hemin i.p for 1 or 2 days, or an equal volume of saline. Striatal HO-1 expression was assessed 24 hours after the last hemin dose. Actin levels provide a gel-loading control. *P<0.05 v. expression in saline-treated controls, n=4/conditon.
Mice received 26 mg/kg hemin or heme arginate i.p for 1 or 2 days, or an equal volume of saline. HO-1 expression was assessed 24 hours after last dose. Actin serves as a control.
The response elicited by protoporphyrin IX-Fe compounds was investigated by administering 26 mg/kg hemin, or an equal volume of saline for 1 or 2 days via intraperitoneal injection. Expression of heme oxygenase-1 (HO-1) in striatal cells was assessed 24 hours after the last hemin dose. Four mice were used for each experimental group. Actin was used as a gel-loading control. HO-1 expression was quantified by immunoblotting as previously described (Neuropharmacology 2011 60:423-431); band density was analyzed using Kodak 1D software (Kodak, Rochester, N.Y.) (FIG. 3).
The effect of protoporphyrin IX-Fe compounds on HO-1 expression in nervous tissue was further investigated using heme arginate and examining the response in the cortex in addition to the striatum. Mice received 26 mg/kg hemin or heme arginate for 1 or 2 days, or an equal volume of saline. All treatments were administered intraperitoneally. HO-1 expression was quantified by immunoblotting as previously described (Neuropharmacology 2011 60:423-431).

[1] = test system: mouse model of intracerebral hemorrhage (ICH); experiment: Evan's blue leakage (blood-brain barrier disruption) after ICH induced by collagenase injection; type: in vivo, mice; conditions: 26 mg/kg 1 or 3 hours after collagenase and again 24 h later, v. vehicle
[2] = test system: mouse model of intracerebral hemorrhage (ICH); experiment: Evan's blue leakage (blood-brain barrier disruption) after ICH induced by striatal autologous blood injection; type: in vivo, mice
Procedure: Mice were treated with 26 mg/kg hemin i.p. 1 hour later, as a one-time dose, or repeated in 24 hours; controls received vehicle i.p. only. Evan's blue leakage into the striatal parenchyma, a marker of blood-brain barrier disruption, was quantified at 3 days. […] Sham mice received anesthesia and needle trauma only. *P<0.05, **P<0.01, hemin treated v. vehicle-treated controls.
The effect of protoporphyrin IX-Fe compounds on subsequent exposure of nervous tissue to toxic doses of hemin was investigated. A mouse model of intracerebral hemorrhage (ICH) was used. ICH was induced in mice (6-7/condition, 9-10 weeks old) by injecting 25 μl autologous blood (FIG. 1A) into the right striatum. One hour after hemorrhage induction, mice were treated with (a) hemin at 26 mg/kg as a one-time dose, (b) hemin at 26 mg/kg at 1 hour after induction and then repeated at 25 hours after induction, or (c) sterile saline solution only. […] Mice were then treated with vehicle or hemin 1 hour later, with repeated dose 24 hours later. All treatments were administered via intraperitoneal injection. Three days after hemorrhage induction, brains were harvested after Evans blue injection, and slices were examined for Evan's blue fluorescence. […] Evan's blue leakage into the striatal parenchyma was quantified as a marker of blood-brain barrier disruption (FIGS. 1A-1B).

striatal cells = experiment: Striatal cell viability by MTT assay after ICH; type: in vivo, mice; conditions: v. vehicle
Procedure: Intracerebral hemorrhage was modeled in 2-3 month old mice (5-6/condition) by striatal injection of autologous blood (25 μl) or collagenase (0.014 units), followed 1 or 3 hours later by 4 mg/kg hemin i.p. (repeated 24 h later) or vehicle. Five days after ICH, striatal cell viability was quantified by MTT assay. *P<0.05, **P<0.01, hemin treated v. vehicle-treated controls.
Whether protoporphyrin IX-Fe compounds could reduce hemorrhage-induced cell death in nervous tissues was investigated using the same mouse model of ICH. Intracerebral hemorrhage was modeled in 2-3 month old mice (5-6/condition) by striatal injection of autologous blood (25 μl) or collagenase (0.014 units), followed 1 or 3 hours later by 4 mg/kg hemin i.p. (repeated 24 h later) or vehicle. Five days after ICH, striatal cell viability was quantified by MTT assay (Chen et al., J Neurosurg 2011 114:1159-67) after striatal cell dissociation (FIG. 2). ICH was also modeled by striatal injection of […] autologous blood, followed by hemin (26 mg/kg) or vehicle treatment at 3 and 27 hours after ICH.

[3] = bound to albumin; cited from earlier work
HO-1 = conditions: low doses; cited from earlier work

HO-1 expression in cortex (CTX) (heme oxygenase-1 (HO-1))	HO-1 expression in striatum (STR) (heme oxygenase-1 (HO-1))	Substance	Evan's blue leakage into the striatal parenchyma, a marker of blood-brain barrier disruption [1]	Evan's blue leakage into the striatal parenchyma, a marker of blood-brain barrier disruption ([2]; striatal autologous blood injection, 26 mg/kg i.p. 1 hour later, one-time dose or repeated in 24 hours, quantified at 3 days, v. vehicle, 26 mg/kg)	Evan's blue fluorescence in brain slices ([2]; three days after hemorrhage induction, DsRed filter, data not shown)	striatal cell viability (MTT assay) (striatal cells; autologous blood (25 μl) or collagenase (0.014 units), 4 mg/kg i.p. 1 or 3 hours later, repeated 24 h later, five days after ICH, 4 mg/kg)	MTT staining intensity / tissue viability (striatal cells; autologous blood, 26 mg/kg at 3 and 27 hours after ICH, data not shown)	blood vessel inflammation and damage (phlebitis) [3]	stability [3]	HO-1 expression in cultured cells (HO-1)	Striatal HO-1 expression (heme oxygenase-1 (HO-1); 24 hours after the last dose, FIG. 3)
increases HO-1 expression	increases HO-1 expression	heme arginate	–	–	–	–	–	–	–	–	–
increases HO-1 expression	increases HO-1 expression	chloride salt of protoporphyrin IX-Fe^3+ [hemin]	decreases blood-brain barrier disruption	attenuated blood-brain barrier disruption following simulated hemorrhage in a dose-dependent manner; also recorded: decreases blood-brain barrier disruption	Reduced fluorescence	increased striatal cell viability; also recorded: increases peri-hematomal cell viability	increased tissue viability	less blood vessel inflammation and damage (phlebitis)	more stable	could induce HO-1 expression	increased expression of HO-1; also recorded: increases expression of the protective enzyme heme oxygenase-1 (HO-1)
